Source: PubChem BioAssay (NCI)
Several values for one entry are separate records, joined by “and”; a condition that tells them apart may be missing. Equal entries are not always repeated.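 A five-concentration, 48-hour dose response in 96-well plates underlies each endpoint, interpolated linearly between surrounding concentrations. GI50 marks 50% less growth. TGI: total growth inhibition.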

Columns and labels:
Assay in all cases: NCI anticancer screen, dose series, 48 h
MCF7 breast = system: MCF7 breast
KM20L2 colon = system: KM20L2 colon
M19-MEL melanoma = system: M19-MEL melanoma
DMS 114 small cell lung = system: DMS 114 small cell lung
XF 498 CNS = system: XF 498 CNS
DLD-1 colon = system: DLD-1 colon
HOP-18 NSCLC = system: HOP-18 NSCLC
MDA-N = system: MDA-N

| SMILES | GI50 (MCF7 breast) | TGI (MCF7 breast) | TGI (M19-MEL melanoma) [µM] | TGI (DMS 114 small cell lung) [µM] | TGI (DLD-1 colon) [µM] | other results |
| --- | --- | --- | --- | --- | --- | --- |
| Nc1ncnc2c1c(-c1cccc(OCc3ccccc3)c1)cn2C1CC(CN2CCC2)C1 (stereo not drawn) | 0.092 µM and 0.369 µM | 3.74 µM and 5.55 µM |  |  |  |  |
| CC(=O)O[C@H]1CCC2[C@@H]3CCC4=C(O)C(=O)C(C#N)C[C@]4(C)C3CC[C@@]21C (stereo partly drawn) |  |  | > 100 | 81.1 | > 100 | TGI (KM20L2 colon): > 100 µM; TGI (XF 498 CNS): > 100 µM |
| O=c1c(O)cccc2cc(O)c(O)c(O)c12 | 6.46 µM | 23.9 µM |  |  |  |  |
| O=C(c1ccccc1)c1oc2ccc(Br)cc2c1-c1cnn(-c2ccccc2)c1 |  |  | > 100 | > 100 | > 100 | TGI (KM20L2 colon): > 100 µM; TGI (XF 498 CNS): > 100 µM |
| COc1ccc(C(=O)C(c2ccc(OC)cc2)C2OC(=O)C(Cl)=C2Cl)cc1 (stereo not drawn) |  |  | > 100 | > 100 | > 100 | TGI (XF 498 CNS): > 100 µM; TGI (HOP-18 NSCLC): > 100 µM |
| COC(=O)c1c(O)c([N+](=O)[O-])cc2c1c1c(n2Cc2ccccc2)C(=O)c2ccccc2C1=O | 5.86 µM | 46.1 µM |  |  |  |  |
| CN(C)c1ncc(-c2ccc(C(F)(F)F)cc2)c(NC2CCCCCC2)n1 | 11.4 µM | 24.9 µM |  |  |  |  |
| CC#C/C(=N\OC[C@H]1COCCN1)c1ccc2ncnc(Nc3ccc(OCc4cccc(F)c4)c(Cl)c3)c2c1 | 1.57 µM | 3.05 µM |  |  |  |  |
| CC(C)C1CC2C(=O)N(c3ccccc3)C(=O)C2c2[nH]c3ccccc3c21 (stereo not drawn) |  |  | > 100 | > 100 | > 100 | TGI (KM20L2 colon): > 100 µM; TGI (XF 498 CNS): 54.9 µM |
| COc1ccc(-c2nc(C(=O)c3ccccc3)n(CC(=O)c3ccccc3)c2-c2ccc(OC)cc2)cc1 | > 100 µM | > 100 µM |  |  |  |  |
| O=C(O)c1cc2ccccc2oc1=O |  | > 100 µM |  |  |  | TGI (MDA-N): > 100 µM |
| CCCCCCCCCc1cc[n+](CC(=O)c2ccc([N+](=O)[O-])cc2)cc1 | 0.397 µM | 1.79 µM |  |  |  |  |
| O=C(/C=C/C=C/c1c(C2CC2)nc2ccccc2c1-c1ccc(F)cc1)c1cccs1 | 0.467 µM | > 100 µM |  |  |  |  |
| Nc1ccccc1NC(=O)c1ccc(CCCC(=O)Nc2ccc(C3CC3N)cc2)cc1 (stereo not drawn) | 1.71 µM | > 100 µM |  |  |  |  |
| COc1ccc(N/N=C(\CCN(C)C)c2ccccc2)cc1 |  |  | 13.5 | 27.6 | 11.9 | TGI (KM20L2 colon): 1.71 µM; TGI (HOP-18 NSCLC): > 100 µM |
| O=C(O)c1cc2ccccc2c(N=Nc2cc(C(F)(F)F)ccc2Cl)c1O |  | > 100 µM |  |  |  | TGI (MDA-N): > 100 µM |
| Cc1cc(Nc2c3ccccc3nc3ccccc23)ccc1NS(C)(=O)=O | 3.99 µM | 18.4 µM |  |  |  |  |
| CC(=O)OC1CC2Oc3ccc(C)cc3C(C)(O2)C1=O (stereo not drawn) |  |  | > 100 | > 100 | > 100 | TGI (XF 498 CNS): > 100 µM; TGI (HOP-18 NSCLC): > 100 µM |
| Clc1ccc(C2=Nn3c(nnc3-c3cc(Cl)cc(Cl)c3Cl)SC2)cc1 | 11.8 µM | 92.7 µM |  |  |  |  |
| OC(COc1ccc(F)cc1)Cn1cnc2c(Cl)ncnc21 (stereo not drawn) | > 100 µM | > 100 µM |  |  |  |  |
| Cc1cc(O)c(C2=NN(c3ccc(S(N)(=O)=O)cc3)C(c3ccc(N(C)C)cc3)C2)c(C)c1Cl (stereo not drawn) | 6.55 µM | 24.2 µM |  |  |  |  |
| O=C(Nc1cccc(Cc2cccc(NC(=O)c3ccccc3)c2)c1)c1ccccc1 |  |  | > 100 | > 100 | > 100 | TGI (KM20L2 colon): > 100 µM; TGI (HOP-18 NSCLC): > 100 µM |
| CC(C)CC(=O)Nc1n[nH]c2c1CN(C(=O)C1CCN(C)CC1)C2(C)C | 0.191 µM | > 10 µM |  |  |  |  |
| CN(CC#N)C1CCCC[C@H]1O (stereo partly drawn) |  |  |  | > 100 | > 100 | TGI (KM20L2 colon): > 100 µM; TGI (XF 498 CNS): > 100 µM; TGI (HOP-18 NSCLC): > 100 µM |
| O=C(Nc1ccccc1O)c1ccc(CNc2ccnc(C(F)(F)F)c2)cc1 | 4.43 µM | > 100 µM |  |  |  |  |
| O=C(CC1(O)C(=O)Nc2ccccc21)c1ccco1 (stereo not drawn) |  |  | > 100 | > 100 | > 100 | TGI (KM20L2 colon): > 100 µM; TGI (XF 498 CNS): > 100 µM |
| Cc1ccc(C2NC(=O)c3ccccc3N2)s1 (stereo not drawn) |  |  | > 100 | > 100 | > 100 | TGI (KM20L2 colon): 39.3 µM; TGI (XF 498 CNS): 19 µM |
| O=C(/C=N/O)Nc1cc(Cl)c(Cl)cc1Cl |  | > 100 µM |  |  |  | TGI (MDA-N): > 100 µM |
| CN1CCN(c2ccc(Nc3nc(N)c(C(=O)c4ccc5c(c4)OCCO5)s3)cc2)CC1 | 2.85 µM | 7.73 µM |  |  |  |  |
